Measured values reported in ChEMBL document CHEMBL1148417, “Thiol-based SAHA analogues as potent histone deacetylase inhibitors” (Bioorg Med Chem Lett, 2004).

Molecular target: Histone deacetylase
Format: protein assay
Description: In vitro inhibitory activity against human histone deacetylase (HDAC) using HeLa nuclear extract

| SMILES | IC50 |
| --- | --- |
| O=C(CCCCCCNCCS)Nc1ccccc1.O=C(O)C(F)(F)F | > 100 µM |
| CSCCCCCCC(=O)Nc1ccccc1 | > 100 µM |
